# Experimental data reported in PubChem BioAssay (NCI).
#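 1) Cells in 96-well plates. 2) Compound, 48 h, 5 concentrations. 3) Linear interpolation between surrounding doses. 4) Unreached endpoint = highest concentration. Definition used: TGI = concentration required for complete inhibition of growth.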
# Test system: CAKI-1 renal
# Assay: NCI tumour cell line growth inhibition, 48 h
row,Structure (SMILES),TGI
1,CCc1c(-c2ccc(OC)cc2)c(=O)oc2cc(O)ccc12,> 100 µM
2,COc1ccc2c(c1)[C@@H]1c3cc(OC)c(OC)cc3CCN1CCC2,> 100 µM
3,CCN(CC)CCn1ncc2c3c(=O)c4cccnc4n(CCN(CC)CC)c3ccc21,> 10 µM
4,COC(=O)[C@@H]1C[C@@]23CCCN4CC[C@@]5(c6cccc(OC)c6N(C=O)[C@]15CC2)[C@@H]43,> 100 µM

# Test system: NCI/ADR-RES ovarian
# Assay: NCI tumour cell line growth inhibition, 48 h
row,Structure (SMILES),TGI
1,NCCCCCCn1c(-c2ccc(Br)cc2)csc1=Nc1ccccc1,28.8 µM
2,CCc1c(-c2ccc(OC)cc2)c(=O)oc2cc(O)ccc12,> 100 µM
3,COc1ccc2c(c1)[C@@H]1c3cc(OC)c(OC)cc3CCN1CCC2,> 100 µM
4,CCN(CC)CCn1ncc2c3c(=O)c4cccnc4n(CCN(CC)CC)c3ccc21,> 10 µM
5,COC(=O)[C@@H]1C[C@@]23CCCN4CC[C@@]5(c6cccc(OC)c6N(C=O)[C@]15CC2)[C@@H]43,> 100 µM

# Test system: OVCAR-3 ovarian
# Assay: NCI tumour cell line growth inhibition, 48 h
row,Structure (SMILES),TGI
1,NCCCCCCn1c(-c2ccc(Br)cc2)csc1=Nc1ccccc1,23.7 µM
2,CCc1c(-c2ccc(OC)cc2)c(=O)oc2cc(O)ccc12,87.5 µM
3,COc1ccc2c(c1)[C@@H]1c3cc(OC)c(OC)cc3CCN1CCC2,> 100 µM
4,CCN(CC)CCn1ncc2c3c(=O)c4cccnc4n(CCN(CC)CC)c3ccc21,> 10 µM
5,COC(=O)[C@@H]1C[C@@]23CCCN4CC[C@@]5(c6cccc(OC)c6N(C=O)[C@]15CC2)[C@@H]43,> 100 µM

# Test system: MALME-3M melanoma
# Assay: NCI tumour cell line growth inhibition, 48 h
row,Structure (SMILES),TGI
1,NCCCCCCn1c(-c2ccc(Br)cc2)csc1=Nc1ccccc1,25.6 µM
2,CCc1c(-c2ccc(OC)cc2)c(=O)oc2cc(O)ccc12,79.5 µM
3,COc1ccc2c(c1)[C@@H]1c3cc(OC)c(OC)cc3CCN1CCC2,> 100 µM
4,CCN(CC)CCn1ncc2c3c(=O)c4cccnc4n(CCN(CC)CC)c3ccc21,> 10 µM
5,COC(=O)[C@@H]1C[C@@]23CCCN4CC[C@@]5(c6cccc(OC)c6N(C=O)[C@]15CC2)[C@@H]43,> 100 µM

# Test system: 786-0 renal
# Assay: NCI tumour cell line growth inhibition, 48 h
row,Structure (SMILES),TGI
1,NCCCCCCn1c(-c2ccc(Br)cc2)csc1=Nc1ccccc1,21.9 µM
2,CCc1c(-c2ccc(OC)cc2)c(=O)oc2cc(O)ccc12,> 100 µM
3,COc1ccc2c(c1)[C@@H]1c3cc(OC)c(OC)cc3CCN1CCC2,> 100 µM
4,CCN(CC)CCn1ncc2c3c(=O)c4cccnc4n(CCN(CC)CC)c3ccc21,> 10 µM
5,COC(=O)[C@@H]1C[C@@]23CCCN4CC[C@@]5(c6cccc(OC)c6N(C=O)[C@]15CC2)[C@@H]43,> 100 µM

# Test system: OVCAR-8 ovarian
# Assay: NCI tumour cell line growth inhibition, 48 h
row,Structure (SMILES),TGI
1,NCCCCCCn1c(-c2ccc(Br)cc2)csc1=Nc1ccccc1,26.2 µM
2,CCc1c(-c2ccc(OC)cc2)c(=O)oc2cc(O)ccc12,> 100 µM
3,COc1ccc2c(c1)[C@@H]1c3cc(OC)c(OC)cc3CCN1CCC2,> 100 µM
4,CCN(CC)CCn1ncc2c3c(=O)c4cccnc4n(CCN(CC)CC)c3ccc21,> 10 µM
5,COC(=O)[C@@H]1C[C@@]23CCCN4CC[C@@]5(c6cccc(OC)c6N(C=O)[C@]15CC2)[C@@H]43,> 100 µM

# Test system: ACHN renal
# Assay: NCI tumour cell line growth inhibition, 48 h
row,Structure (SMILES),TGI
1,NCCCCCCn1c(-c2ccc(Br)cc2)csc1=Nc1ccccc1,27.7 µM
2,CCc1c(-c2ccc(OC)cc2)c(=O)oc2cc(O)ccc12,> 100 µM
3,COc1ccc2c(c1)[C@@H]1c3cc(OC)c(OC)cc3CCN1CCC2,> 100 µM
4,CCN(CC)CCn1ncc2c3c(=O)c4cccnc4n(CCN(CC)CC)c3ccc21,> 10 µM
5,COC(=O)[C@@H]1C[C@@]23CCCN4CC[C@@]5(c6cccc(OC)c6N(C=O)[C@]15CC2)[C@@H]43,> 100 µM

# Test system: PC-3 prostate
# Assay: NCI tumour cell line growth inhibition, 48 h
row,Structure (SMILES),TGI
1,NCCCCCCn1c(-c2ccc(Br)cc2)csc1=Nc1ccccc1,18.3 µM
2,CCc1c(-c2ccc(OC)cc2)c(=O)oc2cc(O)ccc12,83.3 µM
3,COc1ccc2c(c1)[C@@H]1c3cc(OC)c(OC)cc3CCN1CCC2,> 100 µM
4,CCN(CC)CCn1ncc2c3c(=O)c4cccnc4n(CCN(CC)CC)c3ccc21,> 10 µM
5,COC(=O)[C@@H]1C[C@@]23CCCN4CC[C@@]5(c6cccc(OC)c6N(C=O)[C@]15CC2)[C@@H]43,> 100 µM

# Test system: SF-539 CNS
# Assay: NCI tumour cell line growth inhibition, 48 h
row,Structure (SMILES),TGI
1,NCCCCCCn1c(-c2ccc(Br)cc2)csc1=Nc1ccccc1,30.6 µM
2,CCc1c(-c2ccc(OC)cc2)c(=O)oc2cc(O)ccc12,> 100 µM
3,COc1ccc2c(c1)[C@@H]1c3cc(OC)c(OC)cc3CCN1CCC2,> 100 µM
4,CCN(CC)CCn1ncc2c3c(=O)c4cccnc4n(CCN(CC)CC)c3ccc21,> 10 µM
5,COC(=O)[C@@H]1C[C@@]23CCCN4CC[C@@]5(c6cccc(OC)c6N(C=O)[C@]15CC2)[C@@H]43,> 100 µM

# Test system: BT-549 breast
# Assay: NCI tumour cell line growth inhibition, 48 h
row,Structure (SMILES),TGI
1,NCCCCCCn1c(-c2ccc(Br)cc2)csc1=Nc1ccccc1,27.4 µM
2,CCc1c(-c2ccc(OC)cc2)c(=O)oc2cc(O)ccc12,75.9 µM
3,COc1ccc2c(c1)[C@@H]1c3cc(OC)c(OC)cc3CCN1CCC2,> 100 µM
4,CCN(CC)CCn1ncc2c3c(=O)c4cccnc4n(CCN(CC)CC)c3ccc21,> 10 µM
5,COC(=O)[C@@H]1C[C@@]23CCCN4CC[C@@]5(c6cccc(OC)c6N(C=O)[C@]15CC2)[C@@H]43,> 100 µM

# Test system: OVCAR-4 ovarian
# Assay: NCI tumour cell line growth inhibition, 48 h
row,Structure (SMILES),TGI
1,NCCCCCCn1c(-c2ccc(Br)cc2)csc1=Nc1ccccc1,25.9 µM
2,CCc1c(-c2ccc(OC)cc2)c(=O)oc2cc(O)ccc12,> 100 µM
3,COc1ccc2c(c1)[C@@H]1c3cc(OC)c(OC)cc3CCN1CCC2,> 100 µM
4,CCN(CC)CCn1ncc2c3c(=O)c4cccnc4n(CCN(CC)CC)c3ccc21,> 10 µM
5,COC(=O)[C@@H]1C[C@@]23CCCN4CC[C@@]5(c6cccc(OC)c6N(C=O)[C@]15CC2)[C@@H]43,> 100 µM

# Test system: HOP-92 NSCLC
# Assay: NCI tumour cell line growth inhibition, 48 h
row,Structure (SMILES),TGI
1,NCCCCCCn1c(-c2ccc(Br)cc2)csc1=Nc1ccccc1,32.4 µM
2,CCc1c(-c2ccc(OC)cc2)c(=O)oc2cc(O)ccc12,> 100 µM
3,COc1ccc2c(c1)[C@@H]1c3cc(OC)c(OC)cc3CCN1CCC2,> 100 µM
4,CCN(CC)CCn1ncc2c3c(=O)c4cccnc4n(CCN(CC)CC)c3ccc21,> 10 µM
5,COC(=O)[C@@H]1C[C@@]23CCCN4CC[C@@]5(c6cccc(OC)c6N(C=O)[C@]15CC2)[C@@H]43,> 100 µM

# Test system: HCT-116 colon
# Assay: NCI tumour cell line growth inhibition, 48 h
row,Structure (SMILES),TGI
1,NCCCCCCn1c(-c2ccc(Br)cc2)csc1=Nc1ccccc1,15.1 µM
2,CCc1c(-c2ccc(OC)cc2)c(=O)oc2cc(O)ccc12,> 100 µM
3,COc1ccc2c(c1)[C@@H]1c3cc(OC)c(OC)cc3CCN1CCC2,> 100 µM
4,CCN(CC)CCn1ncc2c3c(=O)c4cccnc4n(CCN(CC)CC)c3ccc21,> 10 µM
5,COC(=O)[C@@H]1C[C@@]23CCCN4CC[C@@]5(c6cccc(OC)c6N(C=O)[C@]15CC2)[C@@H]43,> 100 µM

# Test system: SK-MEL-28 melanoma
# Assay: NCI tumour cell line growth inhibition, 48 h
row,Structure (SMILES),TGI
1,NCCCCCCn1c(-c2ccc(Br)cc2)csc1=Nc1ccccc1,27.2 µM
2,CCc1c(-c2ccc(OC)cc2)c(=O)oc2cc(O)ccc12,> 100 µM
3,COc1ccc2c(c1)[C@@H]1c3cc(OC)c(OC)cc3CCN1CCC2,> 100 µM
4,CCN(CC)CCn1ncc2c3c(=O)c4cccnc4n(CCN(CC)CC)c3ccc21,> 10 µM
5,COC(=O)[C@@H]1C[C@@]23CCCN4CC[C@@]5(c6cccc(OC)c6N(C=O)[C@]15CC2)[C@@H]43,> 100 µM

# Test system: SF-268 CNS
# Assay: NCI tumour cell line growth inhibition, 48 h
row,Structure (SMILES),TGI
1,NCCCCCCn1c(-c2ccc(Br)cc2)csc1=Nc1ccccc1,31.3 µM
2,CCc1c(-c2ccc(OC)cc2)c(=O)oc2cc(O)ccc12,> 100 µM
3,COc1ccc2c(c1)[C@@H]1c3cc(OC)c(OC)cc3CCN1CCC2,> 100 µM
